Measurements as given in ChEMBL document CHEMBL1671860, “Role of Cj1211 in natural transformation and transfer of antibiotic resistance determinants in Campylobacter jejuni” (2008).
Values after ≈ are worked out from the molar mass of the structure shown. Active and inactive are the calls of the source. No cut-off for these calls is given here.

What was measured:
Campylobacter jejuni [1] = experiment: Antibacterial activity against Campylobacter jejuni JB201 infected in chicken assessed as decrease in bacterial colonization at 50 mg/L; format: functional, organism-based
Campylobacter = experiment: Antibacterial activity against Campylobacter by Etest; format: functional
Campylobacter jejuni [2] = experiment: Antibacterial activity against Cj1211-negative Campylobacter jejuni harboring aphA3 and tet(O) genes; format: functional
Campylobacter jejuni [3] = experiment: Antibacterial activity against Cj1211-positive Campylobacter jejuni harboring aphA3 and tet(O) genes; format: functional

MIC (Campylobacter)	SMILES	Activity (Campylobacter jejuni [1])	MIC (Campylobacter jejuni [2])	MIC (Campylobacter jejuni [3])
–	CCN1CCN(c2cc3c(cc2F)c(=O)c(C(=O)O)cn3C2CC2)CC1	Active	–	–
> 32 mg/L	O=C(O)c1cn(C2CC2)c2cc(N3CCNCC3)c(F)cc2c1=O [CIPROFLOXACIN]	–	–	–
–	NC[C@H]1O[C@H](O[C@H]2[C@H](O)[C@@H](O[C@H]3O[C@H](CO)[C@@H](O)[C@H](N)[C@H]3O)[C@H](N)C[C@@H]2N)[C@H](O)[C@@H](O)[C@@H]1O [KANAMYCIN]	–	> 256 mg/L	> 256 mg/L
–	CN(C)[C@@H]1C(O)=C(C(N)=O)C(=O)[C@@]2(O)C(O)=C3C(=O)c4c(O)cccc4[C@@](C)(O)[C@H]3C[C@@H]12 [TETRACYCLINE]	–	16 mg/L (≈ 36 µM)	16 mg/L (≈ 36 µM)
